# Assay results published in patent publication US20250339569A1, “CARBONIC ANHYDRASE IX LIGANDS” (priority 2021, published 2025).
# Starred links: 1 amine or outer side, 2 acyl side, 3 side chain; linkers in the order of their positions; H or OH if unused. Positions of bridges follow the written chain, without caps; N, C: chain ends. Non-standard residues stand in square brackets, D forms with d. Residues, ends and D or L forms follow the SMILES beside them. *: point of attachment. NH(CH2)3NH(O2Oc(DOTA)) = O=C(O)CN1CCN(CC(=O)O)CCN(CC(=O)NCCOCCOCC(=O)NCCCN*)CCN(CC(=O)O)CC1; Phe(3-NHCO(CH2)3SO2NH2) = N[C@@H](Cc1cccc(NC(=O)CCCS(N)(=O)=O)c1)C(=O)O; NH(CH2)3NHDOTA = O=C(O)CN1CCN(CC(=O)O)CCN(CC(=O)NCCCN*)CCN(CC(=O)O)CC1; X3 = O=C(O)CN1CCN(CC(=O)O)CCN(CC(=O)NCCCOCCOCCOCCCN*)CCN(CC(=O)O)CC1; X63 = O=C1CC[C@@H](C(=O)Nc2cccc(C[C@H](N[*:1])C(=O)[*:2])c2)N1; DOTA = O=C(O)CN1CCN(CC(=O)O)CCN(CC(=O)*)CCN(CC(=O)O)CC1; Trp(5-OH) = N[C@@H](Cc1c[nH]c2ccc(O)cc12)C(=O)O; Phe(4-NH2) = Nc1ccc(C[C@H](N)C(=O)O)cc1; mXylylene = c1cc(C[*:1])cc(C[*:2])c1; X2 = O=C(CN1CCC(N[*:1])CC1)[*:2]; tBuAla = CC(C)(C)C[C@H](N)C(=O)O; X1 = O=C(CN1CCN([*:1])CC1)[*:2]; Aic = NC1(C(=O)O)Cc2ccccc2C1; Pen = CC(C)(S)[C@H](N)C(=O)O; Suc = O=C(CCC(=O)[*:2])[*:1]; X71 = O=C1NC(=O)C(CC(=O)*)N1; Aib = CC(C)(N)C(=O)O; Sar = CNCC(=O)O
# Target: T1, CAIX-expressing human HT-29 colorectal cancer cells (Homo sapiens, UniProt Q16790)
# T1 construct: CAIX-expressing human HT-29 colorectal cancer cells; host or cells: HT-29 human colorectal cancer cells
# Assay: FACS binding assay (IC50 determination, competition with tracer 3BP-2776 or 3BP-4149)
# Details: FACS binding assay, HT-29 cells, competition with tracer 3BP-2776 (10 nM, biotin-labeled), 4° C., 1 hour; read-out: pIC50 category (activity) (converted)
# Method: In order to determine binding of compounds according to the present invention to CAIX-expressing cells, a FACS binding assay was established.
# CAIX-expressing human HT-29 colorectal cancer cells (DSMZ, RRID: CVCL_0320) were cultured in McCoys's 5A modified medium (Biochrom, #F1015) including 10% fetal calf serum (FCS), 2 mM L-glutamine, 100 U/ml penicillin and 100 μg/mL streptomycin. Cells were detached with Accutase (Biolegend, #423201) and washed in FACS buffer (PBS including 1% FCS). Cells were diluted in FACS buffer to a final concentration of 500.000 cells per ml. 200 μL of the cell suspension were transferred to a u-shaped non-binding 96-well plate (Greiner) and cells were washed in ice-cold FACS buffer.
# When biotinylated compounds were used an additional incubation step with 1 μg/mL APC-Streptavidin (Miltenyi; #130-106-791) in 50 μL FACS buffer for 30 minutes on ice was performed.
# Cells were washed twice with ice-cold FACS buffer and analyzed in an Attune NxT flow cytometer (Thermo Fisher). Median fluorescence intensities (MFI) of the APC/Cy5-channel were calculated by Attune NxT software. MFI values were plotted against peptide concentration and four parameter logistic (4PL) curve fitting and EC50/pEC50 or IC50/pIC50 calculations were performed using ActivityBase software.
row,IC50 [nM],SMILES
1,10 to 79.4,CC(C)C[C@@H]1NC(=O)[C@H](Cc2c[nH]c3ccccc23)NC(=O)[C@H](CC(=O)O)NC(=O)[C@H]2CCCCNC(=O)CC[C@H](NC1=O)C(=O)N[C@@H](Cc1c[nH]c3ccccc13)C(=O)N[C@@H](CO)C(=O)N[C@H](C(N)=O)CSCc1cccc(c1)CSC[C@H](NC(=O)[C@H](Cc1ccc(O)cc1)NC(=O)[C@@H](NC(=O)CN1CCC(NC(=O)CN3CCN(CC(=O)O)CCN(CC(=O)O)CCN(CC(=O)O)CC3)CC1)C(C)C)C(=O)N[C@@H](CCC(=O)O)C(=O)N2 [3BP-4114] ({DOTA}-[X2]VYCE[dK]DWLEWSC-NH2; linker 4-13 via mXylylene; lactam 6-10)
2,< 10,CC(C)C[C@@H]1NC(=O)[C@H](Cc2cccc(NC(=O)CCCS(N)(=O)=O)c2)NC(=O)[C@H](CC(=O)O)NC(=O)[C@H]2CCCN2C(=O)[C@H](CCC(=O)O)NC(=O)[C@@H](NC(=O)[C@H](CO)NC(=O)CN2CCN(C(=O)CN3CCN(CC(=O)O)CCN(CC(=O)O)CCN(CC(=O)O)CC3)CC2)CSCc2cccc(c2)CSC[C@@H](C(N)=O)NC(=O)[C@H](CO)NC(=O)[C@H](Cc2c[nH]c3ccccc23)NC(=O)[C@H]([C@@H](C)O)NC1=O [3BP-4450] ({DOTA}-[X1]SCE[dP]D[Phe(3-NHCO(CH2)3SO2NH2)]LTWSC-NH2; linker 3-12 via mXylylene)
3,10 to 79.4,CC(C)C[C@@H]1NC(=O)[C@H](Cc2cccc(NC(=O)[C@@H]3CCC(=O)N3)c2)NC(=O)[C@H](CC(=O)O)NC(=O)[C@H]2CCCN2C(=O)[C@H](CCC(=O)O)NC(=O)[C@@H](NC(=O)[C@H](Cc2ccc(O)cc2)NC(=O)[C@@H](NC(=O)CN2CCC(NC(=O)CN3CCN(CC(=O)O)CCN(CC(=O)O)CCN(CC(=O)O)CC3)CC2)C(C)C)CSCc2cccc(c2)CSC[C@@H](C(N)=O)NC(=O)[C@H](CO)NC(=O)[C@H](Cc2c[nH]c3ccccc23)NC(=O)[C@H]([C@@H](C)O)NC1=O [3BP-4241] ({DOTA}-[X2]VYCE[dP]D[X63]LTWSC-NH2; linker 4-13 via mXylylene)

# Same assay, conditions: FACS binding assay, HT-29 cells, competition with tracer 3BP-4149 (3 nM, Cy5-labeled), 4° C., 1 hour; read-out: pIC50 category (activity) (converted)
row,IC50 [nM],SMILES
1,10 to 79.4,CC(C)C[C@@H]1NC(=O)[C@H](Cc2ccc(NC(=O)CC3NC(=O)NC3=O)cc2)NC(=O)[C@H](CC(=O)O)NC(=O)[C@H]2CCCN2C(=O)[C@H](CCC(=O)O)NC(=O)[C@@H](NC(=O)[C@H](Cc2ccc(O)cc2)NC(=O)[C@@H](NC(=O)CN2CCC(NC(=O)CN3CCN(CC(=O)O)CCN(CC(=O)O)CCN(CC(=O)O)CC3)CC2)C(C)C)CSCc2cccc(c2)CSC[C@@H](C(N)=O)NC(=O)[C@H](CO)NC(=O)[C@H](Cc2c[nH]c3ccccc23)NC(=O)[C@H]([C@@H](C)O)NC1=O (some centres unmarked) [3BP-4458] ({DOTA}-[X2]VYCE[dP]D[Phe(4-NH2)](X71)LTWSC-NH2; linker 4-13 via mXylylene)

# Same assay, conditions: FACS competition on HT-29 cells, Tracer ID 3BP-2776 (10 nM, biotin-labeled), 4° C., 1 hour; read-out: pIC50 category (activity) (converted)
row,SMILES,IC50 [nM]
1,CC(=O)N[C@H](C(=O)N[C@@H](Cc1ccc(O)cc1)C(=O)N[C@H]1CSCc2cccc(c2)CSC[C@@H](C(N)=O)NC(=O)[C@H](CCC(N)=O)NC(=O)[C@H](Cc2c[nH]c3ccccc23)NC(=O)[C@H]([C@@H](C)O)NC(=O)[C@H](CC(C)C)NC(=O)[C@H](Cc2c[nH]c3ccccc23)NC(=O)[C@H](CC(=O)O)NC(=O)C(C)(C)NC(=O)[C@H](CCC(=O)O)NC1=O)C(C)C [3BP-3059] (Ac-VYCE[Aib]DWLTWQC-NH2; linker 3-12 via mXylylene),< 10
2,CC(=O)N[C@H](C(=O)N[C@@H](Cc1ccc(O)cc1)C(=O)N[C@H]1CSCc2cccc(c2)CSC[C@@H](C(N)=O)NC(=O)[C@H](C)NC(=O)[C@H](Cc2c[nH]c3ccccc23)NC(=O)[C@H]([C@@H](C)O)NC(=O)C(C)(C)NC(=O)[C@H](Cc2c[nH]c3ccccc23)NC(=O)[C@H](CC(=O)O)NC(=O)[C@H]2CCCN2C(=O)[C@H](CCC(=O)O)NC1=O)C(C)C [3BP-3502] (Ac-VYCE[dP]DW[Aib]TWAC-NH2; linker 3-12 via mXylylene),10 to 79.4
3,CC(=O)N[C@H](C(=O)N[C@@H](Cc1ccc(O)cc1)C(=O)N[C@H]1CSCc2cccc(c2)CSC[C@@H](C(N)=O)NC(=O)[C@H](CCC(=O)NCCCNC(=O)COCCOCCNC(=O)CN2CCN(CC(=O)O)CCN(CC(=O)O)CCN(CC(=O)O)CC2)NC(=O)[C@H](Cc2c[nH]c3ccccc23)NC(=O)[C@H]([C@@H](C)O)NC(=O)[C@H](CC(C)C)NC(=O)[C@H](Cc2c[nH]c3ccccc23)NC(=O)[C@H](CC(=O)O)NC(=O)[C@H]2CCCN2C(=O)[C@H](CCC(=O)O)NC1=O)C(C)C [3BP-3479] (Ac-VYCE[dP]DWLTWE(NH(CH2)3NH(O2Oc(DOTA)))C-NH2; linker 3-12 via mXylylene),< 10
4,CC(=O)N[C@H](C(=O)N[C@@H](Cc1ccc(O)cc1)C(=O)N[C@H]1CSCc2cccc(c2)CSC(C)(C)[C@@H](C(N)=O)NC(=O)[C@H](C)NC(=O)[C@H](Cc2c[nH]c3ccccc23)NC(=O)[C@H]([C@@H](C)O)NC(=O)[C@H](CC(C)(C)C)NC(=O)[C@H](Cc2c[nH]c3ccccc23)NC(=O)[C@H](CC(=O)O)NC(=O)[C@H]2CCCN2C(=O)[C@H](CCC(=O)O)NC1=O)C(C)C [3BP-3493] (Ac-VYCE[dP]DW[tBuAla]TWA[Pen]-NH2; linker 3-12 via mXylylene),< 10
5,CC(=O)N[C@H](C(=O)N[C@@H](Cc1ccc(O)cc1)C(=O)N[C@H]1CSCc2cccc(c2)CSC[C@@H](C(N)=O)NC(=O)[C@H](CCC(N)=O)NC(=O)[C@H](Cc2c[nH]c3ccccc23)NC(=O)[C@H]([C@@H](C)O)NC(=O)[C@H](CC(C)C)NC(=O)[C@H](Cc2c[nH]c3ccccc23)NC(=O)[C@@H](CC(=O)O)NC(=O)CNC(=O)[C@H](CCC(=O)O)NC1=O)C(C)C [3BP-3047] (Ac-VYCEG[dD]WLTWQC-NH2; linker 3-12 via mXylylene),100 to 794
6,CC(C)C[C@@H]1NC(=O)[C@H](Cc2c[nH]c3ccccc23)NC(=O)[C@H](CC(=O)O)NC(=O)[C@@H](C)NC(=O)[C@H](CCC(=O)O)NC(=O)[C@@H](NC(=O)[C@H](Cc2ccc(O)cc2)NC(=O)[C@@H](NC(=O)CCC(=O)NCCCOCCOCCOCCCNC(=O)CN2CCN(CC(=O)O)CCN(CC(=O)O)CCN(CC(=O)O)CC2)C(C)C)CSCc2cccc(c2)CSC[C@@H](C(N)=O)NC(=O)[C@H](CCC(N)=O)NC(=O)[C@H](Cc2c[nH]c3ccccc23)NC(=O)[C@H]([C@@H](C)O)NC1=O [3BP-3270] ({X3-Suc}-VYCE[dA]DWLTWQC-NH2; linker 3-12 via mXylylene),< 10
7,CC(=O)N[C@H](C(=O)N[C@@H](Cc1ccc(O)cc1)C(=O)N[C@H]1CSCc2cccc(c2)CSC[C@@H](C(N)=O)NC(=O)[C@H](CCC(N)=O)NC(=O)[C@H](Cc2c[nH]c3ccccc23)NC(=O)[C@H]([C@@H](C)O)NC(=O)[C@H](CC(C)C)NC(=O)[C@H](Cc2c[nH]c3ccc(O)cc23)NC(=O)[C@H](CC(=O)O)NC(=O)CN(C)C(=O)[C@H](CCC(=O)O)NC1=O)C(C)C [3BP-3310] (Ac-VYCE[Sar]D[Trp(5-OH)]LTWQC-NH2; linker 3-12 via mXylylene),100 to 794

# The next lines start with the values.
row,IC50 [nM],SMILES
1,< 10,CC(=O)N[C@@H](Cc1ccc(O)cc1)C(=O)N[C@H]1CSCc2cccc(c2)CSC[C@@H](C(N)=O)NC(=O)[C@H](CCC(=O)NCCCNC(=O)CN2CCN(CC(=O)O)CCN(CC(=O)O)CCN(CC(=O)O)CC2)NC(=O)[C@H](Cc2c[nH]c3ccccc23)NC(=O)[C@H]([C@@H](C)O)NC(=O)[C@H](CC(C)C)NC(=O)[C@H](Cc2c[nH]c3ccccc23)NC(=O)[C@H](CC(=O)O)NC(=O)[C@H]2CCCN2C(=O)[C@H](CCC(=O)O)NC1=O [3BP-3841] (Ac-YCE[dP]DWLTWE(NH(CH2)3NHDOTA)C-NH2; linker 2-11 via mXylylene)
2,< 10,CC(=O)N[C@@H](CO)C(=O)N[C@@H](CCCNC(=N)N)C(=O)N[C@H]1CSCc2cccc(c2)CSC[C@@H](C(N)=O)NC(=O)[C@H](CCC(=O)NCCCNC(=O)COCCOCCNC(=O)CN2CCN(CC(=O)O)CCN(CC(=O)O)CCN(CC(=O)O)CC2)NC(=O)[C@H](Cc2c[nH]c3ccccc23)NC(=O)[C@H]([C@@H](C)O)NC(=O)[C@H](CC(C)C)NC(=O)[C@H](Cc2c[nH]c3ccccc23)NC(=O)[C@H](CC(=O)O)NC(=O)[C@H]2CCCN2C(=O)[C@H](CCC(=O)O)NC1=O [3BP-3735] (Ac-SRCE[dP]DWLTWE(NH(CH2)3NH(O2Oc(DOTA)))C-NH2; linker 3-12 via mXylylene)
3,< 10,CC(C)[C@H](NC(=O)CN1CCC(NC(=O)CN2CCN(CC(=O)O)CCN(CC(=O)O)CCN(CC(=O)O)CC2)CC1)C(=O)N[C@@H](Cc1ccc(O)cc1)C(=O)N[C@H]1CSCc2cccc(c2)CSC[C@@H](C(N)=O)NC(=O)[C@H](CO)NC(=O)[C@H](Cc2c[nH]c3ccccc23)NC(=O)[C@H]([C@@H](C)O)NC(=O)C2(Cc3ccccc3C2)NC(=O)[C@H](Cc2c[nH]c3ccccc23)NC(=O)[C@H](CC(=O)O)NC(=O)[C@H]2CCCN2C(=O)[C@H](CCC(=O)O)NC1=O [3BP-3586] ({DOTA}-[X2]VYCE[dP]DW[Aic]TWSC-NH2; linker 4-13 via mXylylene)
